The text below walks through data of article PMC10609608, “Design, Synthesis, In Vitro Biological Evaluation and In Silico Molecular Docking Study of Benzimidazole-Based Oxazole Analogues: A Promising Acetylcholinesterase and Butyrylcholinesterase Inhibitors” (Molecules, 2023).

Assay [1] deals with butyrylcholinesterase (BuChE) (Homo sapiens, UniProt P06276). Kind of assay: biochemical. The conditions noted are these: in vitro; donepezil as standard; read-out: BuChE IC50 ± SEM. The method, then:
(§1) According to previously established protocols, in vitro AChE and BuChE inhibition profiles were evaluated with slight modifications.

Assay [2] addresses acetylcholinesterase (AChE) (Homo sapiens, UniProt P22303). Description: biochemical. Particulars: in vitro; donepezil as standard; read-out: AChE IC50 ± SEM. The method, then:
as §1

Sequence of acetylcholinesterase (AChE) (P22303 32-614): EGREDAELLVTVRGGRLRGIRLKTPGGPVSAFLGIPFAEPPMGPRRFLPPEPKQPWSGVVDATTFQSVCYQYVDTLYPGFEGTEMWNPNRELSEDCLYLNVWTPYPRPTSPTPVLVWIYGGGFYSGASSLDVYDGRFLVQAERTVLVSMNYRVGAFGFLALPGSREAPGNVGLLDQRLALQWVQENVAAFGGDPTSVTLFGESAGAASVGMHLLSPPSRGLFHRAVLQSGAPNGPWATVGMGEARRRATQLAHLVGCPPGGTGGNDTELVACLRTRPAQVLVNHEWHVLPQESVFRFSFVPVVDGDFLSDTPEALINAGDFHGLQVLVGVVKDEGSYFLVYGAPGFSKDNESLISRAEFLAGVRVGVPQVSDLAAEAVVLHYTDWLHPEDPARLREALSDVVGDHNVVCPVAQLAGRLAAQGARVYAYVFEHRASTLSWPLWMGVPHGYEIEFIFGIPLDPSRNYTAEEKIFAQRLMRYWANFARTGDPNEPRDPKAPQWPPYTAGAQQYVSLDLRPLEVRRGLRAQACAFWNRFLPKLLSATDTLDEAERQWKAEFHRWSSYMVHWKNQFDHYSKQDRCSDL
Sequence of butyrylcholinesterase (BuChE) (P06276 29-602): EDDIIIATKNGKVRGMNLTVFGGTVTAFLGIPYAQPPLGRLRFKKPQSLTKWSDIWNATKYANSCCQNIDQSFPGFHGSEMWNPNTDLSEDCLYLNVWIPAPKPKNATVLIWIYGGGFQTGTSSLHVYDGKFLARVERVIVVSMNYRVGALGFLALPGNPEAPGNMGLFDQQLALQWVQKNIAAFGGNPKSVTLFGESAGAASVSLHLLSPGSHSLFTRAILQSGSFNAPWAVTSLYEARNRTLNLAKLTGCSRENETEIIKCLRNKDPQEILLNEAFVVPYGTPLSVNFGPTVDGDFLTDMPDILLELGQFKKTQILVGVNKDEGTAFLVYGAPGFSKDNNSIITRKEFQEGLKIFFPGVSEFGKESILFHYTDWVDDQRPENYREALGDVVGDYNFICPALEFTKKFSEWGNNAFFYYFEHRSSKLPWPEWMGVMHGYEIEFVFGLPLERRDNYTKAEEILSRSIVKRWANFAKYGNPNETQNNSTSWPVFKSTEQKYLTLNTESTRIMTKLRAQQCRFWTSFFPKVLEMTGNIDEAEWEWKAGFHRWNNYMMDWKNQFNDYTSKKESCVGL

As to `Cc1ccc(/C(CSc2nc3ccccc3[nH]2)=N\Nc2nc(-c3ccc(Cl)c(Cl)c3)co2)cc1` [Compound 6, (E)-2-(2-(2-((1H-Benzo[d]imidazol-2-yl)thio)-1-(p-tolyl)ethylidene)hydrazinyl)-4-(3,4-dichlorophenyl)oxazole], the IC50 (as a rule, the midpoint of a concentration-inhibition curve) is 1.1 ± 0.05 µM in assay [1] and 0.4 ± 0.05 µM in assay [2].
`CN(C)c1ccc(/C(CSc2nc3ccccc3[nH]2)=N\Nc2nc(-c3ccc(Br)cc3)co2)cc1` [Compound 7, (E)-4-(2-((1H-Benzo[d]imidazol-2-yl)thio)-1-(2-(4-(4-bromophenyl)oxazol-2-yl)hydrazono)ethyl)-N,N-dimethylaniline]: the IC50 in assay [1] was 16.3 ± 0.3 µM; in assay [2] it was 12.6 ± 0.3 µM.
With `Cc1ccc(-c2coc(N/N=C(/CSc3nc4ccccc4[nH]3)c3ccc(-c4ccccc4)cc3)n2)cc1` [Compound 16, (E)-2-(2-(2-((1H-Benzo[d]imidazol-2-yl)thio)-1-([1,1′-biphenyl]-4-yl)ethylidene) Hydrazinyl)-4-(p-tolyl)oxazole], the IC50 in assay [1] is 9.3 ± 0.1 µM; in assay [2], 6.1 ± 0.1 µM.
Taken in the same sequence, the figures for `Cc1ccc(/C(CSc2nc3ccccc3[nH]2)=N\Nc2nc(-c3ccccc3[N+](=O)[O-])co2)cc1` [Compound 2, (E)-2-(2-(2-((1H-Benzo[d]imidazol-2-yl)thio)-1-(p-tolyl)ethylidene)hydrazinyl)-4-(2-nitrophenyl)oxazole] were 1.9 ± 0.1 µM and 1.6 ± 0.01 µM.
Taken in the same sequence, the figures for `COc1cccc(-c2coc(N/N=C(/CSc3nc4ccccc4[nH]3)c3ccc(C)cc3)n2)c1` [Compound 5, (E)-2-(2-(2-((1H-Benzo[d]imidazol-2-yl)thio)-1-(p-tolyl)ethylidene)hydrazinyl)-4-(3-methoxyphenyl)oxazole] were 11.5 ± 0.2 µM and 9.8 ± 0.2 µM.
As for `O=[N+]([O-])c1cccc(-c2coc(N/N=C(/CSc3nc4ccccc4[nH]3)c3ccccc3)n2)c1` [Compound 10, (E)-2-(2-(2-((1H-Benzo[d]imidazol-2-yl)thio)-1-phenylethylidene)hydrazinyl)-4-(3-nitrophenyl)oxazole], the IC50 in assay [1] was 2.1 ± 0.1 µM; in assay [2] it was 1.4 ± 0.1 µM.
Turning to `O=[N+]([O-])c1ccccc1-c1coc(N/N=C(/CSc2nc3ccccc3[nH]2)c2ccc(Cl)cc2)n1` [Compound 18, (E)-2-(2-(2-((1H-Benzo[d]imidazol-2-yl)thio)-1-(4-chlorophenyl)ethylidene)hydrazinyl)-4-(2-nitrophenyl)oxazole], the results for the IC50 in assay [1] and in assay [2] were 1.7 ± 0.1 µM and 0.8 ± 0.1 µM, respectively.
In the same order, the values of `O=[N+]([O-])c1cccc(-c2coc(N/N=C(/CSc3nc4ccccc4[nH]3)c3ccc(Cl)cc3)n2)c1` [Compound 11, (E)-2-(2-(2-((1H-Benzo[d]imidazol-2-yl)thio)-1-(4-chlorophenyl)ethylidene)hydrazi-nyl)-4-(3-nitrophenyl)oxazole] are 1.2 ± 0.01 µM and 0.7 ± 0.05 µM.
Taken in the same sequence, the figures for `Cc1ccc(/C(CSc2nc3ccccc3[nH]2)=N\Nc2nc(-c3ccc(C)cc3)co2)cc1` [Compound 4, (E)-2-(2-(2-((1H-Benzo[d]imidazol-2-yl)thio)-1-(p-tolyl)ethylidene)hydrazinyl)-4-(p-tolyl)oxazole] were 8.3 ± 0.2 µM and 6.5 ± 0.2 µM.
Take `COc1cccc(-c2coc(N/N=C(/CSc3nc4ccccc4[nH]3)c3ccc(Cl)cc3)n2)c1` [Compound 19, (E)-2-(2-(2-((1H-Benzo[d]imidazol-2-yl)thio)-1-(4-chlorophenyl)ethylidene)hydrazinyl)-4-(3-methoxyphenyl)oxazole]: the IC50 in assay [1] came out at 3.7 ± 0.1 µM; in assay [2], 2.7 ± 0.2 µM.
As to `COc1cccc(-c2coc(N/N=C(/CSc3nc4ccccc4[nH]3)c3ccccc3)n2)c1` [Compound 15, (E)-2-(2-(2-((1H-Benzo[d]imidazol-2-yl)thio)-1-phenylethylidene)hydrazinyl)-4-(3-methoxyphenyl)oxazole], the IC50 was 7.2 ± 0.1 µM in assay [1] and 5.4 ± 0.1 µM in assay [2].
In the same order, the values of `COc1ccc(/C(CSc2nc3ccccc3[nH]2)=N\Nc2nc(-c3ccccc3[N+](=O)[O-])co2)cc1` [Compound 1, (E)-2-(2-(2-((1H-Benzo[d]imidazol-2-yl)thio)-1-(4-methoxyphenyl)ethylidene)hydrazinyl)-4-(2-nitrophenyl)oxazole] are 1.8 ± 0.1 µM and 1.1 ± 0.1 µM.
For the compound `Cc1ccc(/C(CSc2nc3ccccc3[nH]2)=N\Nc2nc(-c3ccc(Cl)cc3Cl)co2)cc1` [Compound 14, (E)-2-(2-(2-((1H-Benzo[d]imidazol-2-yl)thio)-1-(p-tolyl)ethylidene)hydrazinyl)-4-(2,4-dichlorophenyl)oxazole], the IC50 in assay [1] was 0.3 ± 0.05 µM; in assay [2], 0.2 ± 0.05 µM.
Taken in the same sequence, the figures for `O=[N+]([O-])c1ccccc1-c1coc(N/N=C(/CSc2nc3ccccc3[nH]2)c2ccccc2)n1` [Compound 17, (E)-2-(2-(2-((1H-Benzo[d]imidazol-2-yl)thio)-1-phenylethylidene)hydrazinyl)-4-(2-nitrophenyl)oxazole] were 3.5 ± 0.1 µM and 2.5 ± 0.1 µM.
In the same order, the values of `Cc1ccc(/C(CSc2nc3ccccc3[nH]2)=N\Nc2nc(-c3ccccc3)co2)cc1` [Compound 13, (E)-2-(2-(2-((1H-Benzo[d]imidazol-2-yl)thio)-1-(p-tolyl)ethylidene)hydrazinyl)-4-phenyloxazole] are 9.7 ± 0.1 µM and 8.1 ± 0.1 µM.
Turning to `COc1ccccc1-c1coc(N/N=C(/CSc2nc3ccccc3[nH]2)c2ccc(C)cc2)n1` [Compound 8, (E)-2-(2-(2-((1H-Benzo[d]imidazol-2-yl)thio)-1-(p-tolyl)ethylidene)hydrazinyl)-4-(2-methoxyphenyl)oxazole], the concentration for half-maximal inhibition (IC50) in assay [1] turned out to be 7.2 ± 0.1 µM; in assay [2] it was 5.3 ± 0.2 µM.
Consider `Cc1ccc(/C(CSc2nc3ccccc3[nH]2)=N\Nc2nc(-c3cccc([N+](=O)[O-])c3)co2)cc1` [Compound 3, (E)-2-(2-(2-((1H-Benzo[d]imidazol-2-yl)thio)-1-(p-tolyl)ethylidene)hydrazinyl)-4-(3-nitrophenyl)oxazole], for which the IC50 came to 5.8 ± 0.1 µM in assay [1] and 4.4 ± 0.1 µM in assay [2].
